Measurements as given in US20110065582A1, “ENVIRONMENTALLY FRIENDLY SLOW-RELEASE PESTICIDE FORMULATIONS” (Consejo Superior De Investigaciones Cientificas, priority 2008, published 2011).

Columns and labels:
[1] = Adsorption of sulfentrazone in PC vesicle-montmorillonite suspension as a function of buffer pH; format: physicochemical; details: 5 g/L montmorillonite, 6 mM PC, 2.6 mM SFZ
Protocol: The formulations of PC with different herbicides were prepared by dissolving various quantities of the herbicide in question in a solution of 6 mM PC through sonication, and subsequent adding of montmorillonite. The herbicides employed were alachlor (hydrophobic in nature), atrazine (of basic nature) and sulfentrazone (of acid nature). […] The added amounts of the herbicides were 1.5-14 mM for alachlor, 1.8-2.4 mM for atrazine and 1.3-5.7 mM for sulfentrazone. The clay concentration was 1.6, 5 or 10 g/L. Following agitation during 24 h the suspensions were centrifuged at 20000 g during 10 min, the remaining herbicide in the supernatants was analysed, and the precipitates were lyophilised giving rise to the formulations. The herbicides were analysed by HPLC (Shimadzu Model 10A) fitted with a PDA detector. The reverse phase column was a Kromasil 100 C18 of 15 cm. The flow speed was 1.0 mL min−1. […]
The final concentrations of the formulations and the percentage in weight of the herbicides in the formulation are shown in Table 2. […] The active ingredient content was determined by means of sonication of 5 mg of each formulation in 20 ml of methanol. The suspensions were centrifuged and the herbicide in the supernatants was analysed. […]

[2] = Speciation of SFZ in solution; format: physicochemical
From the text: A primordial factor in the encapsulation of acidic molecules is the pH of the solution. […] However, small anionic species can also permeabilise the bilayers of PC. In fact, SFZ adsorption at pH 7.0 was 4 times higher than the amount of neutral species in solution.

[3] = 96 h of irradiation; cited from earlier work

SMILES	adsorption of SFZ ([1]; buffer of pH 5.0) [%]	adsorption of SFZ ([1]; buffer of pH 7.0 Trizma-HCl 1 M) [%]	speciation in solution: anions ([2]; pH 5.0) [%]	speciation in solution: neutral molecules ([2]; pH 5.0) [%]	speciation in solution: anionic species ([2]; pH 7.0) [%]	speciation in solution: neutrals ([2]; pH 7.0) [%]	activity retained following irradiation [3] [%]
Cc1nn(-c2cc(NS(C)(=O)=O)c(Cl)cc2Cl)c(=O)n1C(F)F [SFZ, sulfentrazone]	69.5	11.8	2.7	97.3	73.4	26.6	
CCCN(CCC)c1c([N+](=O)[O-])cc(C(F)(F)F)cc1[N+](=O)[O-] [free trifluralin, trifluralin]							30
